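1) Cells in 96-well plates. 2) Compound, 48 h, 5 concentrations. 3) Linear interpolation between surrounding doses. 4) Unreached endpoint = highest concentration. At the GI50, growth is halved.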 Calls of active or inactive are those of the source. No stated cut-off is given here; in the data, active = GI50 up to about 1.1 µM and inactive = higher.
Tests used:
Test in all cases: NCI anticancer screen, dose series, 48 h
[1] = tested on: DU-145
[2] = tested on: HCT-116
[3] = tested on: HL-60
[4] = tested on: LOX IMVI
[5] = tested on: M14
[6] = tested on: MCF7
[7] = tested on: MDA-N
[8] = tested on: NCI-H460
[9] = tested on: NCI-H522
[10] = tested on: PC-3
[11] = tested on: SF-268
[12] = tested on: SF-295
[13] = tested on: SK-MEL-28
[14] = tested on: SK-MEL-2
[15] = tested on: SR
[16] = tested on: T47D
[17] = tested on: TK-10
[18] = tested on: UACC-257
[19] = tested on: MOLT-4
[20] = tested on: NCI-H226

Measured: GI50

c1ccc2sc(SCCSc3nc4ccccc4s3)nc2c1
inactive: [1] > 100 µM | [2] > 100 µM | [3] 65.8 µM | [4] > 100 µM | [5] > 100 µM | [6] > 100 µM | [7] > 100 µM | [8] > 100 µM | [9] > 100 µM | [10] > 100 µM | [11] > 100 µM | [12] > 100 µM | [13] > 100 µM | [14] > 100 µM | [15] > 100 µM | [16] > 100 µM | [17] > 100 µM | [18] > 100 µM

O=C1CCC(=O)N1CNc1ccc2c(c1)Sc1ccccc1O2
inactive: [1] 32.5 µM | [2] 21.3 µM | [3] 4.99 µM | [4] 27.3 µM | [5] 27.2 µM | [6] 43.1 µM | [7] 30.2 µM | [19] 61.7 µM | [20] 20.4 µM | [9] 23.8 µM | [10] 32 µM | [11] 44.8 µM | [12] 29.4 µM | [13] 87.3 µM | [14] 18.1 µM | [16] 25.2 µM | [17] 38 µM | [18] 46.7 µM

O=C(Nc1ccc(Cl)c(Cl)c1)C(=O)C(C1OC(=O)c2ccccc21)[N+](=O)[O-] (stereo unspecified)
inactive: [1] > 100 µM | [2] > 100 µM | [4] > 100 µM | [5] > 100 µM | [6] > 100 µM | [7] > 100 µM | [19] > 100 µM | [20] > 100 µM | [8] > 100 µM | [9] > 100 µM | [10] > 100 µM | [11] > 100 µM | [12] > 100 µM | [13] > 100 µM | [14] > 100 µM | [15] > 100 µM | [16] > 100 µM | [17] > 100 µM | [18] > 100 µM

Cc1cc(Cl)cc2c1NC(=O)/C2=N\Nc1ccccc1[N+](=O)[O-]
inactive: [1] 78.2 µM | [2] > 100 µM | [3] > 100 µM | [4] 84.7 µM | [5] > 100 µM | [6] > 100 µM | [7] > 100 µM | [19] 74.3 µM | [8] > 100 µM | [9] > 100 µM | [10] 38.8 µM | [11] > 100 µM | [12] 64.7 µM | [13] > 100 µM | [14] > 100 µM | [15] 16.7 µM | [16] > 100 µM | [17] > 100 µM | [18] > 100 µM

O=C(O)CSCC(=O)Nc1ccc2cccc3c2c1CC3
inactive: [1] > 100 µM | [2] > 100 µM | [3] > 100 µM | [4] > 100 µM | [5] > 100 µM | [6] 97.1 µM | [7] > 100 µM | [19] > 100 µM | [9] > 100 µM | [10] > 100 µM | [11] > 100 µM | [12] > 100 µM | [13] > 100 µM | [14] > 100 µM | [16] > 100 µM | [17] > 100 µM | [18] > 100 µM

CC(=O)NC1C(Sc2ncn(C3OC(CO)C(O)C(O)C3NC(C)=O)n2)OC(CO)C(O)C1O (stereo unspecified)
inactive: [1] > 100 µM | [2] > 100 µM | [3] > 100 µM | [4] > 100 µM | [5] > 100 µM | [6] > 100 µM | [7] > 100 µM | [19] > 100 µM | [8] > 100 µM | [9] > 100 µM | [10] > 100 µM | [11] > 100 µM | [12] > 100 µM | [13] > 100 µM | [14] > 100 µM | [16] > 100 µM | [17] > 100 µM | [18] > 100 µM

O=C1CC(c2ccco2)C2(C(=O)NC(=O)NC2=O)C(c2ccco2)C1 (stereo unspecified)
inactive: [1] > 75 µM | [2] > 75 µM | [3] > 75 µM | [4] > 75 µM | [5] > 75 µM | [6] > 75 µM | [7] > 75 µM | [19] > 75 µM | [8] > 75 µM | [9] > 75 µM | [10] > 75 µM | [11] > 75 µM | [12] > 75 µM | [13] > 75 µM | [14] > 75 µM | [15] > 75 µM | [16] > 75 µM | [17] > 75 µM | [18] > 75 µM

O=c1[nH]c2ccc(Cl)cc2o1
inactive: [1] > 100 µM | [2] > 100 µM | [3] > 100 µM | [4] > 100 µM | [5] > 100 µM | [6] > 100 µM | [7] > 100 µM | [19] > 100 µM | [20] > 100 µM | [8] > 100 µM | [9] 96.4 µM | [10] > 100 µM | [11] > 100 µM | [12] > 100 µM | [15] > 100 µM | [16] > 100 µM | [17] > 100 µM | [18] > 100 µM

Reference: ChEMBL document CHEMBL1201862, “PubChem BioAssay data set” (2004)
